According to publication PMC5049785, “Characterization of Novel Antimalarial Compound ACT-451840: Preclinical Assessment of Activity and Dose–Efficacy Modeling” (PLoS Medicine, 2016):

Assays:
[1] = system: P. falciparum D6 (Sierra Leone); test: [3H]-hypoxanthine incorporation assay, D6; type: cell-based, Plasmodium falciparum; conditions: read-out: 50% inhibitory concentration (IC50); D6, resistance MFQ; mean ± SD
P. falciparum = test: Prediction of human efficacious exposure
Text: In this PK/PD approach, the robust endpoint of animal survival and cure were chosen for clinical relevance. […] The alternative approach used to assess efficacious concentrations in vivo calculated the minimum inhibitory concentration and estimated a minimum parasiticidal concentration from modeling of the exposure–efficacy in the P. falciparum murine model.

[2] = Effect of formulation and food on oral pharmacokinetics in dogs; type: in vivo; conditions: for AUC0-∞ geometric mean / Cmax geometric mean: dogs
Experimental: The fumarate salt of ACT-451840 was administered orally at 10 mg/kg to fasted and fed male dogs (100 mg/dog, n = 4) as a suspension in an aqueous vehicle containing 0.5% (w/w) methylcellulose.

P. berghei = test: In vitro (ex vivo) activity against P. berghei, [3H]-hypoxanthine incorporation; type: cell-based, Plasmodium berghei; conditions: 16 h exposure + 8 h incorporation
Experimental: In vitro (ex vivo) activity against the mouse malaria parasite P. berghei was measured at the Swiss TPH as described elsewhere, with the following modifications: heparinised blood of P. berghei infected and uninfected control female NMRI mice (final hematocrit of 2.5%) was used and exposed to compounds for 16 h followed by 8 h of [^3H]-hypoxanthine incorporation.

[3] = Safety pharmacology in rats; type: in vivo; conditions: rats dosed up to 1,000 mg/kg
[4] = system: GFP-transfected P. berghei ANKA strain; test: In vivo efficacy, P. berghei mouse model; parameters: species or system Plasmodium berghei in female NMRI mice; conditions: for infected mice cured: no detectable parasites on Day 30, n=5
Experimental: In vivo efficacy against P. berghei was conducted at the Swiss TPH as previously described, with the modification that female NMRI mice from Harlan (Horst, The Netherlands) (n = 3) were infected with a GFP-transfected P. berghei ANKA strain (kindly donated by A. P. Waters and C. J. Janse, Leiden University Medical Center, The Netherlands) and parasitemia was determined using standard flow cytometry techniques. ACT-451840 was dissolved or suspended in corn oil before dosing and administered 24 h after infection (single-dose regimen) or 24, 48, and 72 h after infection (triple-dose regimen). With the single-dose regimen, blood was collected on Day 3 (72 h after infection). Samples for the triple-dose regimens were collected on Day 4 (96 h after infection). Antimalarial activity was calculated as the difference between the mean percent parasitemia for the control and treated groups expressed as a percent relative to the control group, consisting of five mice. Control mice were euthanized on Day 4 in order to prevent death typically occurring on Day 6. For the consistency in PK/PD modeling, Day 5 instead of Day 6 was considered the day of death, because treated animals were always euthanized one day before their natural death for animal welfare reasons. Animals were considered cured if there were no detectable parasites on Day 30 post-infection. To confirm the reliability of this assumption, blood from the surviving mice in curative experiments was inoculated into uninfected mice, and no parasitemia developed in these mice even after 30 d. The antimalarial efficacy is defined either as antimalarial activity or as survival: the two readouts of the P. berghei murine model.

[5] = Blood to plasma ratio with 14C-labeled compound; type: in vitro ADME; conditions: human fresh whole-blood, 0.5 μg/mL, 60 minutes, 37 °C
Experimental: The blood to plasma ratio was determined using ^14C-labeled ACT-451840 at Actelion Pharmaceuticals Ltd. (Allschwil, Switzerland). For this, human fresh whole-blood was spiked with a mixture of non-labeled and ^14C-labeled ACT-451840 at a nominal concentration of 0.5 μg / mL and incubated for 60 minutes on a rotary mixer at 37 °C. Radioactivity was determined by liquid scintillation counting in whole blood and after preparation of plasma.

[6] = General oral toxicity study up to 4 wk, rats; type: in vivo
[7] = 100 mg oral, aqueous suspension, fasted
[8] = fumarate salt 100 mg oral, aqueous suspension containing 0.5% methylcellulose, fasted
[9] = fumarate salt 100 mg oral, aqueous suspension containing 0.5% methylcellulose, fed
[10] = methylcellulose suspension, higher in fed
[11] = single-dose regimen, oral 10 mg/kg
[12] = single-dose regimen, oral 15 mg/kg
[13] = single-dose regimen, oral 20 mg/kg
[14] = single-dose regimen, oral 25 mg/kg
[15] = single-dose regimen, oral 30 mg/kg
[16] = single-dose regimen, oral 60 mg/kg
[17] = single-dose regimen, oral 80 mg/kg
[18] = single-dose regimen, oral 100 mg/kg
[19] = single-dose regimen, oral 300 mg/kg
[20] = triple-dose regimen, oral 3 mg/kg once per day
[21] = triple-dose regimen, oral 50 mg/kg once per day
[22] = triple-dose regimen, oral 100 mg/kg once per day
[23] = triple-dose regimen, oral 300 mg/kg once per day
[24] = triple-dose regimen, oral 2 x 15 mg/kg (twice per day)
[25] = triple-dose regimen, oral 2 x 30 mg/kg (twice per day)

CC(=O)N1CCN(c2ccc(CN(C(=O)/C=C/c3ccc(C(C)(C)C)cc3)[C@@H](Cc3ccccc3)C(=O)N3CCN(Cc4ccc(C#N)cc4)CC3)cc2)CC1 [ACT-451840]
IC50 [1]: 0.5 ± 0.1 nM
efficacious human total AUC, expressed in mouse blood (P. falciparum; 227 x 23): 5,250 ng*h/mL
predicted total efficacious human plasma AUC (P. falciparum; corrected for blood/plasma ratio of 0.6): 8,750 ng*h/mL
time for which the threshold of […] would be covered (P. falciparum; single dose of 500 mg, fed state, healthy subjects): 72 h
AUC0-∞ geometric mean [2, 7]: 120 ng·h/mL
Cmax geometric mean [2, 7]: 26.2 ng/mL
AUC0-∞ geometric mean [2, 8]: 304 ng·h/mL
Cmax geometric mean [2, 8]: 46.2 ng/mL
AUC0-∞ geometric mean [2, 9]: 1720 ng·h/mL
Cmax geometric mean [2, 9]: 171 ng/mL
AUC fed dogs versus fasted dogs [2, 10]: 5.7 fold
Cmax fed dogs versus fasted dogs [2, 10]: 3.7 fold
IC50 (P. berghei): 13.5 nM
effects on central nervous and respiratory parameters [3]: no effects
infected mice cured ([4]; 100 mg/kg triple-dose regimen): 20%
infected mice cured ([4]; 300 mg/kg triple-dose regimen): 100%
ED90 ([4]; oral triple-dose regimen, calculated from data in S2 Text): 13 mg/kg
Antimalarial activity (%) [4, 11]: 21.75%
Survival [4, 11]: 5.0 days
Antimalarial activity (%) [4, 12]: 39.00%
Survival [4, 12]: 5.0 days
Antimalarial activity (%) [4, 13]: 76.23%
Survival [4, 13]: 7.0 days
Antimalarial activity (%) [4, 14]: 90.29%
Survival [4, 14]: 6.7 days
Antimalarial activity (%) [4, 15]: 97.42%
Survival [4, 15]: 7.9 days
Antimalarial activity (%) [4, 16]: 99.40%
Survival [4, 16]: 13.7 days
Antimalarial activity (%) [4, 17]: 98.88%
Survival [4, 17]: 12.7 days
Antimalarial activity (%) [4, 18]: 99.19%
Survival [4, 18]: 12.4 days
Antimalarial activity (%) [4, 19]: 98.84%
Survival [4, 19]: 15.7 days
Antimalarial activity (%) [4, 20]: 0.00%
Survival [4, 20]: 6.0 days
Antimalarial activity (%) ([4]; triple-dose regimen, oral 10 mg/kg once per day): 32.25%
Antimalarial activity (%) ([4]; triple-dose regimen, oral 30 mg/kg once per day): 99.53%
Antimalarial activity (%) [4, 21]: 99.78%
Survival [4, 21]: 15.6 days
Antimalarial activity (%) [4, 22]: 99.84%
Survival [4, 22]: 21.8 days
Antimalarial activity (%) [4, 23]: 99.78%
Survival [4, 23]: 30.0 days
Antimalarial activity (%) [4, 24]: 99.06%
Survival [4, 24]: 9.0 days
Antimalarial activity (%) [4, 25]: 99.81%
Survival [4, 25]: 14.6 days
blood to plasma concentration ratio [5]: 0.6
no-observed-adverse-effect level ([6]; oral): 100 mg/kg/day
local gastrointestinal toxicity ([6]; oral up to 2,000 mg/kg/day): no evidence of local gastrointestinal toxicity
